Several values for one entry are separate records, joined by “and”; a condition that tells them apart may be missing. Equal entries are not always repeated.
Legend:
[1] = target: T1, prostaglandin I2 (prostacyclin, PGI2) binding sites (Homo sapiens, UniProt P43119); assay: [3H]iloprost saturation binding (vacuum filtration, Scatchard analysis) on less differentiated and anaplastic thyroid cancer membrane fraction
Procedure: (§1) For comparative studies saturation experi- ments were performed. […] Values are given as x +s.d. Student's t-test was employed for paired data. […] Each point represents the average of 6 separate experiments. […] Each point represents the average of 5 separate determinations.

[2] = target: T1, prostaglandin I2 (prostacyclin, PGI2) binding sites; assay: [3H]iloprost saturation binding (vacuum filtration, Scatchard analysis) on benign solitary thyroid adenoma membrane fraction
[3] = target: T1, prostaglandin I2 (prostacyclin, PGI2) binding sites; assay: [3H]iloprost saturation binding (vacuum filtration, Scatchard analysis) on well differentiated thyroid cancer membrane fraction
Procedure: as §1

[4] = target: prostaglandin I2 (prostacyclin, PGI2) binding sites; assay: [3H]iloprost saturation binding (vacuum filtration, Scatchard analysis) on normal thyroid membrane fraction; parameters: species or system human; settings: normal thyroid tissue, 4 C, 40 min, mean +/- s.d.; read-out: equilibrium dissociation constant (Kd), low affinity binding sites
Procedure: as §1

[5] = target: T1, prostaglandin I2 (prostacyclin, PGI2) binding sites; assay: as above
Procedure: as §1

[6] = parameters: method as in Moncada et al., 1976; settings: pH 7.4; degradation to 6-oxo-PGF1a; ref Moncada et al., 1976; cited from earlier work

T1 sequence (P43119 1-383): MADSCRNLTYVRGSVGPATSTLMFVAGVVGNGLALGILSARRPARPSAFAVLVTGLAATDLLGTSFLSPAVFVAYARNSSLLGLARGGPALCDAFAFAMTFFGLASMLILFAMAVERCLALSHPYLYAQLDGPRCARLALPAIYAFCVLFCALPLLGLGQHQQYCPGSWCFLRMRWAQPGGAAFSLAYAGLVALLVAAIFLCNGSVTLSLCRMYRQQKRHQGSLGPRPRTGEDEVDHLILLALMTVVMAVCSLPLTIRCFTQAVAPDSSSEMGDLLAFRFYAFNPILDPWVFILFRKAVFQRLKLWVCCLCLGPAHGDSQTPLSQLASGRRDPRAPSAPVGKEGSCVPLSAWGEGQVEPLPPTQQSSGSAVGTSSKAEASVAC

Structure (SMILES)	Bmax [1]	Bmax, high affinity binding sites [1]	diminution of [3H]iloprost high affinity binding sites [1]	Bmax, high affinity binding sites [2]	Bmax [3]	Bmax, high affinity binding sites [3]	Kd [4]	binding capacity (Bmax), high affinity binding sites [5]	stability in aqueous medium [6]
CC#CCC(C)[C@H](O)/C=C/[C@@H]1[C@H]2C/C(=C/CCCC(=O)O)C[C@H]2C[C@H]1O (stereo partly drawn) [[3H]iloprost, iloprost]	218.1 fmol mg- 1 protein and 176.0 fmol mg- 1 protein and 153.2 fmol mg- 1 protein and 165.3 fmol mg- 1 protein and 190.6 fmol mg- 1 protein	180.6 ± 25.1	~70%	325.8 ± 110.0	328.9 fmol mg- 1 protein and 359.2 fmol mg- 1 protein and 253.6 fmol mg- 1 protein and 255.5 fmol mg- 1 protein and 301.2 fmol mg- 1 protein	299.7 ± 46.0	132 nM	613.2 ± 130.4	–
CCCCC[C@H](O)/C=C/[C@@H]1[C@H]2C/C(=C/CCCC(=O)O)O[C@H]2C[C@H]1O [PGI2, prostaglandin I2]	–	–	–	–	–	–	–	–	rapid hydrolysis
